Measurements as given in PubChem BioAssay (NCI).
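Following 48 hours of exposure in 96-well plates, responses at five concentrations were used to interpolate endpoints linearly. TGI: concentration producing complete growth inhibition.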

Key:
Test in all cases: growth of human tumour cells (NCI), 48 h
[1] = tested on: SK-MEL-28 melanoma
[2] = tested on: M14 melanoma
[3] = tested on: SK-OV-3 ovarian
[4] = tested on: K-562 leukemia
[5] = tested on: MALME-3M melanoma
[6] = tested on: OVCAR-8 ovarian
[7] = tested on: SF-268 CNS
[8] = tested on: 786-0 renal
[9] = tested on: U251 CNS
[10] = tested on: HCC-2998 colon
[11] = tested on: HT29 colon
[12] = tested on: NCI-H522 lung
[13] = tested on: OVCAR-3 ovarian
[14] = tested on: NCI/ADR-RES ovarian
[15] = tested on: MDA-MB-231 breast
[16] = tested on: MCF7 breast
[17] = tested on: HS 578T breast
[18] = tested on: T-47D breast
[19] = tested on: PC-3 prostate
[20] = tested on: MDA-N

SMILES	TGI [1]	TGI [2]	TGI [3]	TGI [4]	TGI [5]	TGI [6]	TGI [7]	TGI [8]	TGI [9]	TGI [10]	TGI [11]	TGI [12]	TGI [13]	TGI [14]	TGI [15]	TGI [16]	TGI [17]	TGI [18]	TGI [19]	TGI [20]
Cc1ccc(/C(O)=C/c2nc3c(nc2NC24CC5CC(CC(C5)C2)C4)c(=O)oc2ccccc23)cc1	> 100 µM	> 100 µM	> 100 µM	> 100 µM	> 100 µM	> 100 µM	> 100 µM	> 100 µM	> 100 µM	> 100 µM	> 100 µM	> 100 µM	> 100 µM	–	–	–	–	–	–	–
COc1ccc(P2(=S)Oc3ccccc3-c3ccccc3O2)cc1	> 100 µM	> 100 µM	–	> 100 µM	> 100 µM	> 40.6 µM	> 100 µM	> 100 µM	> 100 µM	9.56 µM	–	–	0.493 µM	> 100 µM	> 100 µM	> 40.4 µM	> 100 µM	> 100 µM	–	–
COc1cc2nc(-c3cccs3)nc(N3CCN(c4ccccc4C(F)(F)F)CC3)c2cc1OC	> 100 µM	> 100 µM	> 100 µM	> 100 µM	> 100 µM	> 100 µM	> 100 µM	> 100 µM	> 100 µM	> 100 µM	> 100 µM	> 100 µM	> 100 µM	> 100 µM	> 100 µM	> 100 µM	> 100 µM	> 100 µM	> 100 µM	–
Oc1c(Cl)c(Cl)c(O)c(CCNc2ccc3ncccc3c2)c1Cl	54.6 µM	27.1 µM	27.6 µM	> 100 µM	35.3 µM	50.6 µM	18.8 µM	34.3 µM	36.8 µM	28 µM	88.4 µM	4.29 µM	35 µM	33.9 µM	–	30.8 µM	13.1 µM	> 100 µM	> 100 µM	–
COc1c(OC(C)C)c(OC(C)C)c2oc(=O)n3c2c1C(c1ccccc1-n1c(C)ccc1C)C=C3 (stereo not drawn)	> 100 µM	> 100 µM	> 100 µM	> 100 µM	50 µM	> 100 µM	> 100 µM	> 100 µM	> 100 µM	> 100 µM	> 100 µM	> 100 µM	> 100 µM	> 100 µM	> 100 µM	> 100 µM	> 100 µM	–	> 100 µM	> 100 µM
C=CCN1C(=O)/C(=C\c2cc(C(C)(C)C)c(O)c(C(C)(C)C)c2)NC1=S	> 100 µM	75.4 µM	> 100 µM	> 100 µM	> 100 µM	> 100 µM	> 100 µM	55.7 µM	32.7 µM	–	80.7 µM	27.8 µM	39.6 µM	> 100 µM	34.9 µM	90.5 µM	> 100 µM	–	42 µM	> 100 µM
O=P1(Oc2ccc(Cl)cc2Cl)Oc2ccc3ccccc3c2-c2c(ccc3ccccc23)O1	> 85.4 µM	–	> 100 µM	> 100 µM	46.4 µM	> 100 µM	> 100 µM	–	47.5 µM	61.4 µM	> 100 µM	50.7 µM	49.5 µM	> 100 µM	–	> 100 µM	–	–	–	–
CCO/C=N\c1c(C#N)c(-c2ccc(Cl)cc2)cn1-c1ccc(C)cc1	> 100 µM	> 100 µM	> 100 µM	> 100 µM	> 100 µM	> 100 µM	> 100 µM	> 100 µM	> 100 µM	> 100 µM	> 100 µM	> 100 µM	> 100 µM	> 100 µM	> 100 µM	> 100 µM	> 100 µM	–	> 100 µM	> 100 µM
O=S(CC1(O)CCCCC1)c1ccccc1 (stereo not drawn)	> 100 µM	> 100 µM	> 100 µM	> 100 µM	> 100 µM	> 100 µM	> 100 µM	> 100 µM	> 100 µM	> 100 µM	> 100 µM	> 100 µM	–	> 100 µM	> 100 µM	> 100 µM	> 100 µM	> 100 µM	> 100 µM	–
Clc1nssc1=Nc1nonc1-c1ccccc1	> 100 µM	37.2 µM	> 100 µM	70.1 µM	99.2 µM	> 100 µM	–	> 100 µM	> 100 µM	> 100 µM	52.2 µM	43.4 µM	> 100 µM	98.3 µM	34.5 µM	> 100 µM	–	–	> 100 µM	41.2 µM
Nc1nc(Cl)c(/C=N\O)c(NCC2(CO)CCC2)n1	> 100 µM	–	–	> 100 µM	> 100 µM	> 100 µM	> 100 µM	> 100 µM	> 100 µM	> 100 µM	> 100 µM	> 100 µM	> 100 µM	> 100 µM	> 100 µM	> 100 µM	> 100 µM	–	> 100 µM	> 100 µM
O=S(=O)(c1ccccc1)C(c1ccc2ccccc2n1)S(=O)(=O)c1ccccc1	> 100 µM	–	–	> 100 µM	> 100 µM	> 100 µM	> 100 µM	> 100 µM	> 100 µM	> 100 µM	> 100 µM	> 100 µM	> 100 µM	> 100 µM	> 100 µM	> 100 µM	> 100 µM	–	> 100 µM	> 100 µM
CC[C@H](Nc1c(O)c2c(c(O)c1Cl)C(=O)C=CC2=O)C(=O)OC	–	> 10 µM	> 10 µM	> 10 µM	> 10 µM	> 10 µM	> 10 µM	> 10 µM	> 10 µM	–	> 10 µM	> 10 µM	> 10 µM	> 10 µM	9.76 µM	> 10 µM	> 10 µM	–	> 10 µM	> 10 µM
COc1cc2cc3c4cc(OC)c(OC)cc4cc[n+]3cc2cc1OC	> 100 µM	–	> 100 µM	> 100 µM	> 100 µM	> 100 µM	> 100 µM	–	> 100 µM	> 100 µM	> 100 µM	> 100 µM	> 73.3 µM	> 100 µM	–	> 31.6 µM	–	–	–	–
